± gives the standard deviation of the reports.
glass transition temperature | SMILES
305.00 °C | *C(=O)c1cc2c(cc1Cl)C(=O)N(c1cc(N3C(=O)c4cc(*)c(Cl)cc4C3=O)cc(C(F)(F)F)c1)C2=O (repeat unit)
310.00 °C | *c1ccc(Oc2ccc(S(=O)(=O)c3ccc(Oc4ccc(-c5c6c(c(*)c7ccccc57)C(=O)N(c5ccccc5)C6=O)cc4)cc3)cc2)cc1 (repeat unit)
140.00 °C | *Oc1ccc(/C=C2\CC/C(=C\c3ccc(OC(=O)c4ccc(/N=C/c5ccc(/C=N/c6ccc(C(*)=O)cc6)cc5)cc4)c(OC)c3)C2=O)cc1OC (repeat unit)
46.00 °C | *CCCCCCOC(=O)c1cc(OCCCCCCOc2ccc(/N=N/c3ccc(C#N)cc3)cc2)cc(C(=O)OCCCCCCn2c(=O)c3cc4c(=O)n(*)c(=O)c4cc3c2=O)c1 (repeat unit)
55.00 °C | */C=C/c1cccc(OC(=O)CCCCCCCCC(=O)Oc2ccc(-c3nnc(*)s3)cc2)c1 (repeat unit)
27.00 °C | *CC(*)(C)C(=O)OCCOCCOCC[N+](CC)(CC)CCCCS(=O)(=O)O (repeat unit)
115.00 °C | *Cc1ccc(CNC(=O)CCCCCCCCC(=O)N*)cc1 (repeat unit)
237.00 °C | *C(=O)Nc1ccc(Oc2ccccc2-c2ccccc2Oc2ccc(NC(=O)c3ccc4c(c3)C(=O)N(c3cccc(N5C(=O)c6ccc(*)cc6C5=O)c3)C4=O)cc2)cc1 (repeat unit)
30.00 °C | *CC(O)COC(=O)CCCCCCCCC(=O)OCC(O)COc1ccc(/C=C(\C)c2ccc(O*)cc2)cc1 (repeat unit)
10.00 °C | *CC(*)(C)C(=O)OCCCCOc1ccc(OC(=O)c2ccc(OCCCCCCCC)cc2)cc1 (repeat unit)
211.00 °C | *C(=O)c1ccc2c(c1)C(=O)N(c1cccc(Oc3cccc(Oc4cccc(N5C(=O)c6ccc(*)cc6C5=O)c4)c3)c1)C2=O (repeat unit)
252.50 °C | *C(=O)c1cc(C(=O)c2ccc3c(c2)C(=O)N(c2ccc(Oc4ccc(N5C(=O)c6ccc(*)cc6C5=O)cc4)cc2)C3=O)cc(C(C)(C)C)c1 (repeat unit)
321.00 °C | *c1ccc(C(c2ccccc2)c2ccc(-n3c(=O)c4cc5c(=O)n(*)c(=O)c5cc4c3=O)cc2)cc1 (repeat unit)
357.00 °C | *C(=O)Nc1ccc(S(=O)(=O)c2ccc(NC(=O)c3ccc4c(c3)C(=O)N(c3cc(-c5nc6ccccc6s5)cc(N5C(=O)c6ccc(*)cc6C5=O)c3)C4=O)cc2)cc1 (repeat unit)
175.00 °C | *Oc1ccc(S(=O)(=O)c2ccc(Oc3ccc(C(C)(C)c4ccc(Oc5ccc(C(=O)c6ccc(*)cc6)cc5)cc4)cc3)cc2)cc1 (repeat unit)
195.00 °C | *Oc1ccc(-c2ccc(Oc3ccc(C(=O)c4ccc5cc(C(=O)c6ccc(*)cc6)ccc5c4)cc3)cc2)cc1 (repeat unit)
110.00 °C | *CCCCCCCCNC(=O)Cc1ccc(CC(=O)N*)cc1 (repeat unit)
110.00 °C | *CCCCCCCCCn1c(=O)c2cc3c(=O)n(*)c(=O)c3cc2c1=O (repeat unit)
320.00 °C | *c1ccc(Oc2ccc(N3C(=O)c4ccc(-c5cccc6c5C(=O)N(*)C6=O)cc4C3=O)cc2)cc1 (repeat unit)
75.76 °C | *CCCCC(=O)Oc1ccc(OC(=O)c2ccc3c(c2)C(=O)N(*)C3=O)c(C)c1 (repeat unit)
255.00 °C | *c1cccc(N2C(=O)c3ccc(Oc4ccc(Oc5ccc6c(c5)C(=O)N(*)C6=O)cc4)cc3C2=O)c1 (repeat unit)
58.00 °C | *CC(O)CN(C)S(=O)(=O)c1cccc(S(=O)(=O)N(C)CC(O)COc2ccc(-c3ccc(O*)cc3)cc2)c1 (repeat unit)
-11.00 °C | *O[Si](C)(CCC(F)(F)F)CCC(F)(F)C(F)(F)C(F)(F)C(F)(F)C(F)(F)C(F)(F)C(F)(F)C(F)(F)C(F)(F)C(F)(F)CC[Si](*)(C)CCC(F)(F)F (repeat unit)
215.00 °C | *CCCCCCc1ccc(-c2c(-c3ccccc3)cc(-c3cccc(-c4cc(-c5ccccc5)c(-c5ccc(*)cc5)c(-c5ccccc5)c4-c4ccccc4)c3)c(-c3ccccc3)c2-c2ccccc2)cc1 (repeat unit)
28.00 °C | *Oc1ccccc1C(=O)OC(=O)c1ccccc1OC(=O)CCCCCCC(*)=O (repeat unit)

glass transition temperature | SMILES
150.00 °C | *CCCC(CCNC(=O)c1ccc(C(=O)N*)cc1)C(C)C (repeat unit)
252.00 °C | *c1ccc(Oc2ccc(-c3cccc4c3C(=O)N(Oc3ccc(C(=O)c5ccc(Oc6cccc7c6C(=O)N(*)C7=O)cc5)cc3)C4=O)cc2)cc1 (repeat unit)
360.00 °C | *c1ccc(-c2ccc(-c3cc(-c4ccccc4)c4cc(-c5ccc6nc(*)cc(-c7ccccc7)c6c5)ccc4n3)cc2)cc1 (repeat unit)
421.00 °C | *Oc1ccc(C2(c3ccc(Oc4ccc5c(=O)n6c7cc(-c8ccc9c(c8)nc8c%10ccc(*)c%11cccc(c(=O)n98)c%11%10)ccc7nc6c6cccc4c56)cc3)c3ccccc3-c3ccccc32)cc1 (repeat unit)
234.20 °C | *Nc1ccc(NC(=O)c2cc(-c3ccc(C(=O)OC)c(C(*)=O)c3)ccc2C(=O)OC)cc1 (repeat unit)
106.80 °C | *CC(*)C(=O)OCCn1c2ccccc2c2ccccc21 (repeat unit)
85.00 °C | *CC(*)(C)C(=O)OC(COc1ccc(-c2ccccc2)cc1)COc1ccc(-c2ccccc2)cc1 (repeat unit)
232.00 ± 18 °C | *c1ccc(Oc2cccc(N3C(=O)c4ccc(Oc5ccc6c(c5)C(=O)N(*)C6=O)cc4C3=O)c2)cc1 (repeat unit)
355.8 ± 42 °C | *c1ccc(N2C(=O)c3ccc(Oc4ccc5c(c4)C(=O)N(*)C5=O)cc3C2=O)cc1 (repeat unit)
262.00 °C | *c1ccc(Oc2ccc(Oc3ccc(N4C(=O)c5ccc(Oc6ccc(C7(c8ccc(Oc9ccc%10c(c9)C(=O)N(*)C%10=O)cc8)CCCCCCCCCCC7)cc6)cc5C4=O)cc3)c(C(C)(C)C)c2)cc1 (repeat unit)
150.00 °C | *NC(C)CCC(C)(C)CCCNC(=O)c1ccc(C(*)=O)cc1 (repeat unit)
220.00 °C | *C(=O)c1ccc(Oc2ccc(Oc3ccc(C(=O)c4ccc5c(c4)C(=O)N(c4ccc(Oc6ccc(N7C(=O)c8ccc(*)cc8C7=O)cc6)cc4)C5=O)cc3)cc2)cc1 (repeat unit)
84.00 °C | *O[Si](C)(C)O[Si](C)(C)O[Si](C)(C)O[Si](C)(C)C#Cc1ccc(C#C[Si](*)(C)C)cc1 (repeat unit)
38.00 °C | *CC(F)(F)C(F)(F)COC(=O)NCC(F)(F)C(F)(F)C(F)(F)C(F)(F)CNC(=O)O* (repeat unit)
260.50 °C | *C(=O)c1ccc2c(c1)C(=O)N(c1cccc(C(=O)N(C)c3ccc(N4C(=O)c5ccc(*)cc5C4=O)cc3)c1)C2=O (repeat unit)
264.00 °C | *c1ccc2c(c1)C(=O)N(c1cccc(C(=O)Nc3ccc(Oc4cccc(Oc5ccc(NC(=O)c6cccc(N7C(=O)c8ccc(C(*)(C(F)(F)F)C(F)(F)F)cc8C7=O)c6)cc5)c4)cc3)c1)C2=O (repeat unit)
55.00 °C | *CC(*)CCCCCCCCCCCCCCCC (repeat unit)
147.00 °C | *c1ccc(Oc2ccc(C(c3ccc(Oc4ccc(N5C(=O)CC(=O)N(*)C5=S)cc4)cc3)(C(F)(F)F)C(F)(F)F)cc2)cc1 (repeat unit)
140.00 °C | *Oc1ccc(OC(=O)c2ccc(-c3ccc(C(*)=O)cc3)cc2-c2ccccc2)cc1 (repeat unit)
166.00 °C | *Nc1cc(NC(=O)c2cc(OCCCS(=O)(=O)c3ccc(/N=N/c4ccc(N(C)C)cc4)cc3)cc(C(*)=O)c2)cc(C(=O)OCCCN(C)c2ccc(/N=N/c3ccc(S(C)(=O)=O)cc3)cc2)c1 (repeat unit)
-52.00 °C | *O[Si](C)(C)CC(C)(C)COC(=O)c1cccc(C(=O)OCC(C)(C)C[Si](*)(C)C)c1 (repeat unit)
179.00 °C | *C(=O)c1ccc2c(c1)C(=O)N(c1cc(OCCCCCCCCCCCCCCCC)cc(N3C(=O)c4ccc(*)cc4C3=O)c1)C2=O (repeat unit)
49.00 °C | *CCCCCCCCCCNC(=O)CCCCCCCCCCC(=O)N* (repeat unit)
110.00 °C | *Oc1cccc(NC(=O)CCCCCCCCCC(=O)Nc2ccc(*)cc2)c1 (repeat unit)

SMILES | glass transition temperature
*CC(C[N-][N+]#N)O* (repeat unit) | -35.00 °C
*Oc1cccc(C(*)=O)c1 (repeat unit) | 162.00 °C
*CC(*)OC(=O)/C=C/c1ccccc1 (repeat unit) | 127.00 °C
*c1ccc2c(c1)C(=O)N(c1ccc(OCCN(CCOc3ccc(N4C(=O)c5ccc(C(*)(C(F)(F)F)C(F)(F)F)cc5C4=O)cc3)c3ccccc3)cc1)C2=O (repeat unit) | 170.00 °C
*CC(*)C(=O)OCCOC (repeat unit) | -34.00 °C
*OC(*)C (repeat unit) | -19.50 °C
*CC(*)(C)C(=O)OCCNC(C)(C)C (repeat unit) | 41.00 °C
*CCN(*)C(=O)CC (repeat unit) | 60.00 °C
*CCCCOC(=O)COCC(=O)O* (repeat unit) | -23.00 °C
*C(OC(F)(F)F)C(*)(F)F (repeat unit) | -10.00 °C
*CC(*)c1ccc(C)nc1 (repeat unit) | 136.00 °C
*OC1CCCCC1OC(*)=O (repeat unit) | 117.30 °C
*CC(*)(C)C(=O)OCCC(C)(C)C (repeat unit) [Poly(3,3-dimethylbutyl methacrylate)] | 45 ± 1.2 °C
*CC(*)(C)C(=O)OCc1ccccc1Cl (repeat unit) | 54.10 °C
*CC(*)(CCC(C)C(=O)OC)C(=O)OC (repeat unit) | 34.00 °C
*c1cc(CC(=O)OCC)c(*)s1 (repeat unit) | 56.70 °C
*CC(*)c1ccc([Si](C)(C)C)cc1 (repeat unit) | 136.00 °C

Source: the PolyMetriX glass transition set
